{
  "source": "patent US11959122B2",
  "origin": "cited, not measured here",
  "data": [
    {"system": "microbial flora in the target watershed", "conditions": "determined by EUCAST database; unit assumed; cited from earlier work", "units": {"Observed MIC": "µg/mL"}, "values": [
      {"smiles": "CC1(C)S[C@@H]2[C@H](NC(=O)[C@H](N)c3ccc(O)cc3)C(=O)N2[C@H]1C(=O)O", "note": "[Amoxicillin]", "Observed MIC": 4},
      {"smiles": "CC1(C)S[C@@H]2[C@H](NC(=O)[C@H](N)c3ccccc3)C(=O)N2[C@H]1C(=O)O", "note": "[Ampicillin]", "Observed MIC": 4},
      {"smiles": "CC[C@H]1OC(=O)[C@H](C)[C@@H](O[C@H]2C[C@@](C)(OC)[C@@H](O)[C@H](C)O2)[C@H](C)[C@@H](O[C@@H]2O[C@H](C)C[C@H](N(C)C)[C@H]2O)[C@](C)(O)C[C@@H](C)CN(C)[C@H](C)[C@@H](O)[C@]1(C)O", "note": "[Azithromycin]", "Observed MIC": 16},
      {"smiles": "C[C@H]1[C@H](NC(=O)/C(=N\\OC(C)(C)C(=O)O)c2csc(N)n2)C(=O)N1S(=O)(=O)O", "note": "[Aztreonam]", "Observed MIC": 32},
      {"smiles": "N[C@@H](C(=O)N[C@@H]1C(=O)N2C(C(=O)O)=C(Cl)CS[C@H]12)c1ccccc1", "note": "[Cefaclor]", "Observed MIC": 32},
      {"smiles": "Cc1nnc(SCC2=C(C(=O)O)N3C(=O)[C@@H](NC(=O)Cn4cnnn4)[C@H]3SC2)s1", "note": "[Cefazolin]", "Observed MIC": 32},
      {"smiles": "CO/N=C(\\C(=O)N[C@@H]1C(=O)N2C(C(=O)[O-])=C(C[N+]3(C)CCCC3)CS[C@H]12)c1csc(N)n1", "note": "[Cefepime]", "Observed MIC": 8},
      {"smiles": "CO/N=C(\\C(=O)N[C@@H]1C(=O)N2C(C(=O)O)=C(COC(C)=O)CS[C@H]12)c1csc(N)n1", "note": "[Cefotaxime]", "Observed MIC": 2},
      {"smiles": "CO/N=C(\\C(=O)N[C@@H]1C(=O)N2C(C(=O)[O-])=C(C[n+]3cccc4c3CCC4)CS[C@H]12)c1csc(N)n1", "note": "[Cefpirome]", "Observed MIC": 4},
      {"smiles": "CC(C)(O/N=C(\\C(=O)N[C@@H]1C(=O)N2C(C(=O)[O-])=C(C[n+]3ccccc3)CS[C@H]12)c1csc(N)n1)C(=O)O", "note": "[Ceftazidime]", "Observed MIC": 16},
      {"smiles": "Nc1nc(/C(=C/CC(=O)O)C(=O)N[C@@H]2C(=O)N3C(C(=O)O)=CCS[C@H]23)cs1", "note": "[Ceftibuten]", "Observed MIC": 8},
      {"smiles": "CO/N=C(\\C(=O)N[C@@H]1C(=O)N2C(C(=O)O)=C(CSC(=O)c3ccco3)CS[C@H]12)c1csc(N)n1", "note": "[Ceftiofur]", "Observed MIC": 8},
      {"smiles": "CO/N=C(\\C(=O)N[C@@H]1C(=O)N2C(C(=O)O)=C(CSc3nc(=O)c(=O)[nH]n3C)CS[C@H]12)c1csc(N)n1", "note": "[Ceftriaxone]", "Observed MIC": 2},
      {"smiles": "CO/N=C(\\C(=O)N[C@@H]1C(=O)N2C(C(=O)O)=C(COC(N)=O)CS[C@H]12)c1ccco1", "note": "[Cefuroxime]", "Observed MIC": 8},
      {"smiles": "O=C(O)c1cn(C2CC2)c2cc(N3CCNCC3)c(F)cc2c1=O", "note": "[Ciprofloxacin]", "Observed MIC": 2},
      {"smiles": "NC1CCN(c2c(F)cc3c(=O)c(C(=O)O)cn(C4CC4)c3c2Cl)C1", "note": "(stereo not drawn) [Clinafloxacin]", "Observed MIC": 32},
      {"smiles": "Cc1onc(-c2ccccc2Cl)c1C(=O)N[C@@H]1C(=O)N2[C@@H]1SC(C)(C)[C@@H]2C(=O)O", "note": "[Cloxacillin]", "Observed MIC": 64},
      {"smiles": "CCCCCCCCCC(=O)N[C@@H](Cc1c[nH]c2ccccc12)C(=O)N[C@H](CC(N)=O)C(=O)N[C@@H](CC(=O)O)C(=O)N[C@@H]1C(=O)NCC(=O)N[C@@H](CCCN)C(=O)N[C@@H](CC(=O)O)C(=O)N[C@H](C)C(=O)N[C@@H](CC(=O)O)C(=O)NCC(=O)N[C@H](CO)C(=O)N[C@@H]([C@H](C)CC(=O)O)C(=O)N[C@@H](CC(=O)c2ccccc2N)C(=O)O[C@@H]1C", "note": "[Daptomycin]", "Observed MIC": 32},
      {"smiles": "CN1CCN(c2cc3c(cc2F)c(=O)c(C(=O)O)cn3-c2ccc(F)cc2)CC1", "note": "[Difloxacin]", "Observed MIC": 2},
      {"smiles": "CCN1CCN(c2cc3c(cc2F)c(=O)c(C(=O)O)cn3C2CC2)CC1", "note": "[Enrofloxacin]", "Observed MIC": 8},
      {"smiles": "C[C@@H](O)[C@H]1C(=O)N2C(C(=O)O)=C(S[C@@H]3CN[C@H](C(=O)Nc4cccc(C(=O)O)c4)C3)[C@H](C)[C@H]12", "note": "[Ertapenem]", "Observed MIC": 2},
      {"smiles": "CC[C@H]1OC(=O)[C@H](C)[C@@H](O[C@H]2C[C@@](C)(OC)[C@@H](O)[C@H](C)O2)[C@H](C)[C@@H](O[C@@H]2O[C@H](C)C[C@H](N(C)C)[C@H]2O)[C@](C)(O)C[C@@H](C)C(=O)[C@H](C)[C@@H](O)[C@]1(C)O", "note": "[Erythromycin]", "Observed MIC": 16},
      {"smiles": "C[C@@H](O)[C@H]1C(=O)N2C(C(=O)O)=C([C@H]3CCCO3)S[C@H]12", "note": "[Faropenem]", "Observed MIC": 8},
      {"smiles": "CCc1c(Cl)c(O)c(Cl)c(O)c1C(=O)O[C@H]1[C@H](O)[C@H](OC)[C@H](OC/C2=C\\C=C\\C[C@H](O)/C(C)=C/[C@H](CC)[C@@H](O[C@@H]3OC(C)(C)[C@@H](OC(=O)C(C)C)[C@H](O)[C@@H]3O)/C(C)=C/C(C)=C/C[C@@H]([C@@H](C)O)OC2=O)O[C@@H]1C", "note": "[Fidaxomicin]", "Observed MIC": 8},
      {"smiles": "OC(Cn1cncn1)(Cn1cncn1)c1ccc(F)cc1F", "note": "[Fluconazol]", "Observed MIC": 64},
      {"smiles": "CC1CCc2cc(F)cc3c(=O)c(C(=O)O)cn1c23", "note": "(stereo not drawn) [Flumequine]", "Observed MIC": 64},
      {"smiles": "COc1c(N2CCNC(C)C2)c(F)cc2c(=O)c(C(=O)O)cn(C3CC3)c12", "note": "(stereo not drawn) [Gatifloxacin]", "Observed MIC": 4},
      {"smiles": "NNC(=O)c1ccncc1", "note": "[Isoniazide]", "Observed MIC": 64},
      {"smiles": "CC(=O)N1CCN(c2ccc(OCC3COC(Cn4ccnc4)(c4ccc(Cl)cc4Cl)O3)cc2)CC1", "note": "(stereo not drawn) [Ketoconazole]", "Observed MIC": 4},
      {"smiles": "C[C@@H](O)[C@H]1C(=O)N2C(C(=O)O)=C(S[C@@H]3CN[C@H](C(=O)N(C)C)C3)[C@H](C)[C@H]12", "note": "[MeropeneM]", "Observed MIC": 2},
      {"smiles": "Cc1ncc([N+](=O)[O-])n1CCO", "note": "[Metronidazole]", "Observed MIC": 16},
      {"smiles": "C/C(=C\\C(=O)OCCCCCCCCC(=O)O)C[C@@H]1OC[C@H](C[C@@H]2O[C@H]2[C@@H](C)[C@H](C)O)[C@@H](O)[C@H]1O", "note": "[Mupirocin]", "Observed MIC": 32},
      {"smiles": "CCN[C@@H]1C[C@H](N)[C@@H](O[C@H]2OC(CN)=CC[C@H]2N)[C@H](O)[C@H]1O[C@H]1OC[C@](C)(O)[C@H](NC)[C@H]1O", "note": "[Netilmicin]", "Observed MIC": 16},
      {"smiles": "CCn1cc(C(=O)O)c(=O)c2cc(F)c(N3CCNCC3)cc21", "note": "[Norfloxacin]", "Observed MIC": 16},
      {"smiles": "Cc1onc(-c2ccccc2)c1C(=O)N[C@@H]1C(=O)N2[C@@H]1SC(C)(C)[C@@H]2C(=O)O", "note": "[Oxacillin]", "Observed MIC": 32},
      {"smiles": "CC1(C)S[C@@H]2[C@H](NC(=O)COc3ccccc3)C(=O)N2[C@H]1C(=O)O", "note": "[Phenoxymethylpenicillin]", "Observed MIC": 4},
      {"smiles": "CCN1CCN(C(=O)N[C@@H](C(=O)N[C@@H]2C(=O)N3[C@@H]2SC(C)(C)[C@@H]3C(=O)O)c2ccccc2)C(=O)C1=O", "note": "[Piperacillin]", "Observed MIC": 4},
      {"smiles": "C=C[C@]1(C)C[C@@H](OC(=O)CS[C@@H]2C[C@H]3CC[C@@H](C2)N3C)[C@]2(C)[C@H](C)CC[C@]3(CCC(=O)[C@H]32)[C@@H](C)[C@@H]1O", "note": "[Retapamulin]", "Observed MIC": 64},
      {"smiles": "CC[C@H]1OC(=O)[C@H](C)[C@@H](O[C@H]2C[C@@](C)(OC)[C@@H](O)[C@H](C)O2)[C@H](C)[C@@H](O[C@@H]2O[C@H](C)C[C@H](N(C)C)[C@H]2O)[C@](C)(O)C[C@@H](C)/C(=N\\OCOCCOC)[C@H](C)[C@@H](O)[C@]1(C)O", "note": "[Roxithromycin]", "Observed MIC": 2},
      {"smiles": "Cc1ncc([N+](=O)[O-])n1CC(C)O", "note": "(stereo not drawn) [Secnidazole]", "Observed MIC": 32},
      {"smiles": "CN[C@@H]1[C@H](O)[C@H](NC)[C@H]2O[C@@]3(O)C(=O)C[C@@H](C)O[C@H]3O[C@@H]2[C@H]1O", "note": "[Spectinomycin]", "Observed MIC": 2},
      {"smiles": "CC[C@H]1OC(=O)[C@H](C)C(=O)[C@H](C)[C@@H](O[C@@H]2O[C@H](C)C[C@H](N(C)C)[C@H]2O)[C@](C)(OC)C[C@@H](C)C(=O)[C@H](C)[C@H]2N(CCCCn3cnc(-c4cccnc4)c3)C(=O)O[C@]12C", "note": "[Telithromycin]", "Observed MIC": 16}
    ]}
  ]
}
